Our source for the mortality values is ChEMBL document CHEMBL6074655, “Vindeburnol: A natural product-inspired chemical tool for central nervous system drug design” (Eur J Med Chem, 2024).

Data set [1] in a line: Toxicity in male mouse assessed as mortality rate at 50 mg/kg, iv. The data set is classed as organism-based. The following applies: in vivo.
The nature of data set [2]: Toxicity in female mouse assessed as mortality rate at 50 mg/kg, iv. Type of data set: organism-based. The following applies: in vivo.

Regarding `O[C@@H]1C[C@H]2CCCN3CCc4c(n1c1ccccc41)[C@H]23`, the mortality in data set [1] was 70%; in data set [2], 64%.
